Legend:
[1] = system: Human immunodeficiency virus 1; assay: Antiviral activity against HIV1 TEKI; type: functional, organism-based; settings: Human immunodeficiency virus 1, TEKI
[2] = system: Human immunodeficiency virus 1; assay: Antiviral activity against HIV1 NL4-3; type: functional, organism-based; settings: Human immunodeficiency virus 1, NL4-3
[3] = system: PBMC; assay: Cytotoxicity against human PBMC; type: functional

IC50 [1] [µM]	IC50 [2] [µM]	SMILES	CC50 [3] [µM]
3.52	3.11	Nc1ncnc2c1ncn2[C@H]1CN[C@@H](CO)C1	46.6
		Cc1cn([C@H]2C[C@H](N=[N+]=[N-])[C@@H](CO)O2)c(=O)[nH]c1=O [ZIDOVUDINE]	> 1

— ChEMBL document CHEMBL1146190, “Azadideoxyadenosine: synthesis, enzymology, and anti-HIV activity” (Bioorg Med Chem Lett, 2006)
